This is an account of results in BindingDB's records for doi:10.1021/jm4017448 (China Pharmaceutical University, 2013).

By EC50 is commonly meant the midpoint of the concentration-response curve.

This assay has as its target Glucagon-like peptide 1 receptor (Homo sapiens, UniProt P43220). The assay is described as follows: Activation of human GLP-1 receptor overexpressed in HEK293 cells assessed as cAMP accumulation after 20 mins by HTRF assay. (In general: Changes in cAMP serve as a functional read-out for many G protein-coupled receptors.)

Chain of Glucagon-like peptide 1 receptor (P43220 whole entry): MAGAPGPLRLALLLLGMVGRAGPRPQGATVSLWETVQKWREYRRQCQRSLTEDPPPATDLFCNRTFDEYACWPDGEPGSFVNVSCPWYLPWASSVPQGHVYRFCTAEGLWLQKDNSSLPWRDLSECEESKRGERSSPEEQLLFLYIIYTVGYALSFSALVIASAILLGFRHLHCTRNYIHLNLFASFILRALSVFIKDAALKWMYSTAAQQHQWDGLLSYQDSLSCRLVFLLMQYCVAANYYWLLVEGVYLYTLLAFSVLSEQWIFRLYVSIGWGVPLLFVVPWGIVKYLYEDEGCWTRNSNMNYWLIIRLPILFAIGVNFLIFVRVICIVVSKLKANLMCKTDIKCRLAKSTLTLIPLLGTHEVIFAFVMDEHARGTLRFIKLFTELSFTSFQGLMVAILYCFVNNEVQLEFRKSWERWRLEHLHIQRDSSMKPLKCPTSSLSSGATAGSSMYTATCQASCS

In the case of `CC[C@H](C)[C@H](NC(=O)[C@H](Cc1ccccc1)NC(=O)[C@H](CCC(=O)O)NC(=O)[C@H](CCCCN)NC(=O)[C@H](C)NC(=O)[C@H](C)NC(=O)[C@H](CCC(N)=O)NC(=O)CNC(=O)[C@H](CCC(=O)O)NC(=O)[C@H](CC(C)C)NC(=O)[C@H](Cc1ccc(O)cc1)NC(=O)[C@H](CO)NC(=O)[C@H](CO)NC(=O)[C@@H](NC(=O)[C@H](CC(=O)O)NC(=O)[C@H](CO)NC(=O)[C@@H](NC(=O)[C@H](Cc1ccccc1)NC(=O)[C@@H](NC(=O)CNC(=O)[C@H](CCC(=O)O)NC(=O)CNC(=O)[C@@H](N)Cc1cnc[nH]1)[C@@H](C)O)[C@@H](C)O)C(C)C)C(=O)N[C@@H](C)C(=O)N[C@@H](Cc1c[nH]c2ccccc12)C(=O)N[C@@H](CC(C)C)C(=O)N[C@H](C(=O)N[C@@H](CCCCN)C(=O)NCC(=O)N[C@@H](CCCNC(=N)N)C(=O)N[C@@H](CSC1CC(=O)N(CCCCCC(=O)Nc2ccc(C(c3c(O)c4ccccc4oc3=O)c3c(O)c4ccccc4oc3=O)cc2)C1=O)C(N)=O)C(C)C` (some centres not stated), the EC50 came out at 3 pM.
The value for `CC[C@H](C)[C@H](NC(=O)[C@H](Cc1ccccc1)NC(=O)[C@H](CCC(=O)O)NC(=O)[C@H](CS)NC(=O)[C@H](C)NC(=O)[C@H](C)NC(=O)[C@H](CCC(N)=O)NC(=O)CNC(=O)[C@H](CCC(=O)O)NC(=O)[C@H](CC(C)C)NC(=O)[C@H](Cc1ccc(O)cc1)NC(=O)[C@H](CO)NC(=O)[C@H](CO)NC(=O)[C@@H](NC(=O)[C@H](CC(=O)O)NC(=O)[C@H](CO)NC(=O)[C@@H](NC(=O)[C@H](Cc1ccccc1)NC(=O)[C@@H](NC(=O)CNC(=O)[C@H](CCC(=O)O)NC(=O)CNC(=O)[C@@H](N)Cc1cnc[nH]1)[C@@H](C)O)[C@@H](C)O)C(C)C)C(=O)N[C@@H](C)C(=O)N[C@@H](Cc1c[nH]c2ccccc12)C(=O)N[C@@H](CC(C)C)C(=O)N[C@H](C(=O)N[C@@H](CCCCN)C(=O)NCC(=O)N[C@@H](CCCNC(=N)N)C(N)=O)C(C)C` was 3 pM.
